# Where a name gives a salt, the structure may show the parent alone. Read-outs that look alike come from different tables or passages of the source.
# Columns and labels:
# primary hepatocyte [1] = conditions: rat; cited from earlier work
# primary hepatocyte [2] = conditions: dog; cited from earlier work
# primary hepatocyte [3] = conditions: human; cited from earlier work
# [4] = rats; cited from earlier work
# [5] = dogs; cited from earlier work
# [6] = target: T1, mammalian DNA polymerases α (Homo sapiens, UniProt P09884); conditions: cited from earlier work
# T1 sequence (P09884 1-1462): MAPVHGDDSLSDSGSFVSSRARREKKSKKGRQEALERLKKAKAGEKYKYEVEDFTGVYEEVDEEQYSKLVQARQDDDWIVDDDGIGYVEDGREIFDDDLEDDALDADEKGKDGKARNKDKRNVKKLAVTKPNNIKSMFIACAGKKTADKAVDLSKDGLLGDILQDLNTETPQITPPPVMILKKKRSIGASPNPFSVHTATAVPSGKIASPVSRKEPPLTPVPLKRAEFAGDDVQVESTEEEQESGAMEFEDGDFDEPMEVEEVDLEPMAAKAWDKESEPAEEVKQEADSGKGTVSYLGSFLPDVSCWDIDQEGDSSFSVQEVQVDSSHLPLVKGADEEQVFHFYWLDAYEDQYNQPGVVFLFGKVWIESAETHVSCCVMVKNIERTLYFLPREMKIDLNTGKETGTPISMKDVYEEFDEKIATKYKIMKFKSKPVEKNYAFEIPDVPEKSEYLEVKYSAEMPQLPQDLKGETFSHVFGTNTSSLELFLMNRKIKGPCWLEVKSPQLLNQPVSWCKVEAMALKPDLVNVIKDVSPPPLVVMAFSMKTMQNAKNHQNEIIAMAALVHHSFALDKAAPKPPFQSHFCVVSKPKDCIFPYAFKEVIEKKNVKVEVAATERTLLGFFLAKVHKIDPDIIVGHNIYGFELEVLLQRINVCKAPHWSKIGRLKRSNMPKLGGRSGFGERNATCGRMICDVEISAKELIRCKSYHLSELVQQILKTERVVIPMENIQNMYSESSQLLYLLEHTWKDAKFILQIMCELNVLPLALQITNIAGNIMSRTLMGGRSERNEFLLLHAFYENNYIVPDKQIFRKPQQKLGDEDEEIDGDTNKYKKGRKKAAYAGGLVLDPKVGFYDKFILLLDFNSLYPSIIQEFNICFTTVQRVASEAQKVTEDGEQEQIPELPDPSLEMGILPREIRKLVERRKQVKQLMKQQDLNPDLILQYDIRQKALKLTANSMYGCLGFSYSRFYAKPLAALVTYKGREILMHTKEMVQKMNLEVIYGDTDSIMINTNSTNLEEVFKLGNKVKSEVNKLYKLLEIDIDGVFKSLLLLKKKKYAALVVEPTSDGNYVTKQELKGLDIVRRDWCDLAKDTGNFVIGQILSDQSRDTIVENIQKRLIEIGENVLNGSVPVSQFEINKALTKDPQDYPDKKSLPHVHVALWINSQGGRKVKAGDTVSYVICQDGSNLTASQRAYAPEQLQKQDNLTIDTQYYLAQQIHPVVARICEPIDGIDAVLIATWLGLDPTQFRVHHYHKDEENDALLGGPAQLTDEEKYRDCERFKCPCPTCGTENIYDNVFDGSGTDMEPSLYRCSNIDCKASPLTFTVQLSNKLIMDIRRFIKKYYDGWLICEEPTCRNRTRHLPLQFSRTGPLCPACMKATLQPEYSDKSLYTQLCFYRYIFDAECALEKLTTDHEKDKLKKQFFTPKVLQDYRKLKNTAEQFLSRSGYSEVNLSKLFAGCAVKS
# [7] = target: mammalian DNA polymerases β (Homo sapiens, UniProt P06746); conditions: cited from earlier work
# [8] = target: T2, mitochondrial DNA polymerase γ (Homo sapiens, UniProt P54098); conditions: cited from earlier work
# T2 sequence (P54098 1-1239): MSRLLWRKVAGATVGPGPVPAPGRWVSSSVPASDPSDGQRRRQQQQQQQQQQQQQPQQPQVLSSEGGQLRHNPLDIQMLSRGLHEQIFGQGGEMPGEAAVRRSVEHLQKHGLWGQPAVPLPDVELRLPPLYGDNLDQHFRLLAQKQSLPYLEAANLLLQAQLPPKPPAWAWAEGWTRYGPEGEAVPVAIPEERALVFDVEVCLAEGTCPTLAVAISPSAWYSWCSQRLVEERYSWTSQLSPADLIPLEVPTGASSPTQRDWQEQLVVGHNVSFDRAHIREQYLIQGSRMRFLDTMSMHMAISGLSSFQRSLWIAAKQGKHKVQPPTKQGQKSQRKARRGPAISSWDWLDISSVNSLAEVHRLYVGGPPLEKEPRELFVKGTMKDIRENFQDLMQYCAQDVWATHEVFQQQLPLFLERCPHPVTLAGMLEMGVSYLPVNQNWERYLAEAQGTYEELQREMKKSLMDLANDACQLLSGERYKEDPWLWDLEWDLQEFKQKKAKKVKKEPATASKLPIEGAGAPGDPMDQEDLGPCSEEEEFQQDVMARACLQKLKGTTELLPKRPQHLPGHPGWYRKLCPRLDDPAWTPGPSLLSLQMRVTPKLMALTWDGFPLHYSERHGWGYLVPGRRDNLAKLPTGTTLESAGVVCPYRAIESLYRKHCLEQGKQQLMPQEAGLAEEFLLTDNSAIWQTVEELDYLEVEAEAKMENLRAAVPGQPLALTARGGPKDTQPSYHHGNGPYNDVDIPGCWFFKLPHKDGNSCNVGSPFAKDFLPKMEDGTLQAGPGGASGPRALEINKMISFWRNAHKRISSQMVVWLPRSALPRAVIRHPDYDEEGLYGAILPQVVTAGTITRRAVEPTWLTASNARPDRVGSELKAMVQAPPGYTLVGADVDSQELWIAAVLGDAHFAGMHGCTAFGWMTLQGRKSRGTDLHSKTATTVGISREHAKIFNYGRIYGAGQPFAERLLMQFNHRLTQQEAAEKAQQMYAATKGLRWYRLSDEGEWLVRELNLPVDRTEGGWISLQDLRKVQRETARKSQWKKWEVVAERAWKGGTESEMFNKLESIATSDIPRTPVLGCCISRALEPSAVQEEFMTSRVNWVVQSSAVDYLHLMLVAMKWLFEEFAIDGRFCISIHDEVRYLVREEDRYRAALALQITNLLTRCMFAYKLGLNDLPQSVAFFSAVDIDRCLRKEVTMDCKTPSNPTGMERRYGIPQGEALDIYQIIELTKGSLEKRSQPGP
# Anti-(H12)2 = assay: Specificity of the immunoassay (cross-reactivity in human serum); assay type: binding, rabbit; conditions: 10 μg/mL of crossreactant plus 5 μg/mL of tipranavir in human serum
# Experimental: Also antibody Anti-(H12)2 was used in this Example as part of an antibody reagent (“Anti-(H12)2 Antibody Reagent”) further comprising nicotinamide adenine dinucleotide, glucose-6-phosphate, sodium chloride, bulking agent, surfactant, and preservatives.
# An immunoassay for tipranavir was conducted on the Cobas Mira Chemistry Analyzer (Roche). On the analyzer, 4 μL of sample plus 61 μL water were incubated for 300 sec with 150 μL of Anti-(H12)2 Antibody Reagent. […] After 25 sec incubation, enzyme activity was monitored by following the production of NADH spectrophotometrically at 340 nm for 50 sec.
# Testing was performed on the Cobas Mira analyzer. The percentage concentration above 5 μg/mL of tipranavir was calculated for each crossreactant.
# [9] = cited from earlier work
# [10] = cited from earlier work; remark: listed apart in the source
# CYP450 enzymes = conditions: in vitro; cited from earlier work
molecule,measurement,setting,value
CCC[C@@]1(CCc2ccccc2)CC(O)=C([C@H](CC)c2cccc(NS(=O)(=O)c3ccc(C(F)(F)F)cn3)c2)C(=O)O1 [Tipranavir],stability in primary hepatocyte incubations,primary hepatocyte [1],stable
same,stability in primary hepatocyte incubations,primary hepatocyte [2],stable
same,stability in primary hepatocyte incubations,primary hepatocyte [3],stable
same,plasma metabolic profile,[4],only the parent drug
same,plasma metabolic profile,[5],only the parent drug
CC(Cn1cnc2c(N)ncnc21)OCP(=O)(O)OP(=O)(O)OP(=O)(O)O (stereo in doubt) [Tenofovir diphosphate],inhibition of DNA polymerase α,[6],weak inhibitor
same,inhibition of DNA polymerase β,[7],weak inhibitor
same,inhibition of mitochondrial DNA polymerase γ,[8],weak inhibitor
O=C1Nc2ccc(Cl)cc2[C@@](C#CC2CC2)(C(F)(F)F)O1 [Efavirenz],Percent Increase in Apparent Tipranavir,Anti-(H12)2,0%
2′-deoxy-3′-thiacytidine [Lamivudine],Percent Increase in Apparent Tipranavir,Anti-(H12)2,0%
same,absolute bioavailability,[9]; adults,approximately 82%
same,absolute bioavailability,[9]; children,~68%
same,time to maximum serum concentrations after the dose,[9]; oral administration,0.5 to 1.5 h
same,oral dose eliminated renally as unchanged drug,[9]; oral dose,approximately 70%
same,secretion into breast milk,[9]; postpartum women,secreted into breast milk
same,placental transfer,[9]; pregnant women,diffuses freely across the placenta
same,systemic exposure (AUC) when administered with food,[9]; with food,not altered
Cc1cccc(C)c1OCC(=O)N[C@@H](Cc1ccccc1)[C@@H](O)C[C@H](Cc1ccccc1)NC(=O)[C@H](C(C)C)N1CCCNC1=O [Lopinavir],Percent Increase in Apparent Tipranavir,Anti-(H12)2,0%
Tenofovir,dose recovered in the urine as unchanged tenofovir,"[10]; IV administration, within 72 hours of dosing",70-80%
same,terminal elimination half-life,"[10]; single dose, oral administration of Tenofovir disoproxil fumarate",approximately 17 hours
same,substrate of CYP450 enzymes,CYP450 enzymes,neither tenofovir disoproxil nor tenofovir are substrates of CYP450 enzymes
CC(C)OC(=O)OCOP(=O)(CO[C@H](C)Cn1cnc2c(N)ncnc21)OCOC(=O)OC(C)C [Tenofovir disoproxil fumarate],administered dose recovered in urine,"[10]; multiple oral doses 300 mg once daily (under fed conditions), over 24 hours",32±10%
CC(C)CN(C[C@@H](O)[C@H](Cc1ccccc1)NC(=O)O[C@H]1CCOC1)S(=O)(=O)c1ccc(N)cc1 [Amprenavir],Percent Increase in Apparent Tipranavir,Anti-(H12)2,0%
CC(C)(C)NC(=O)[C@@H]1C[C@@H]2CCCC[C@@H]2CN1C[C@@H](O)[C@H](Cc1ccccc1)NC(=O)[C@H](CC(N)=O)NC(=O)c1ccc2ccccc2n1 [Saquinavir],Percent Increase in Apparent Tipranavir,Anti-(H12)2,0%
CC(C)OC(=O)OCOP(=O)(CO[C@H](C)Cn1cnc2c(N)ncnc21)OCOC(=O)OC(C)C [tenofovir disoproxil],substrate of CYP450 enzymes,CYP450 enzymes,neither tenofovir disoproxil nor tenofovir are substrates of CYP450 enzymes
CC(C)c1nc(CN(C)C(=O)N[C@H](C(=O)N[C@@H](Cc2ccccc2)C[C@H](O)[C@H](Cc2ccccc2)NC(=O)OCc2cncs2)C(C)C)cs1 [Ritonavir],Percent Increase in Apparent Tipranavir,Anti-(H12)2,0%
Cc1c(O)cccc1C(=O)N[C@@H](CSc1ccccc1)[C@H](O)CN1C[C@H]2CCCC[C@H]2C[C@H]1C(=O)NC(C)(C)C [Nelfinavir],Percent Increase in Apparent Tipranavir,Anti-(H12)2,0%
CC(C)(C)NC(=O)[C@@H]1CN(Cc2cccnc2)CCN1C[C@@H](O)C[C@@H](Cc1ccccc1)C(=O)N[C@H]1c2ccccc2C[C@H]1O [Indinavir],Percent Increase in Apparent Tipranavir,Anti-(H12)2,0%

# From US20070218486A1, “Immunoassays, Haptens, Immunogens and Antibodies for Anti-HIV Therapeutics” (Ark Diagnostics, Inc., priority 2006, published 2007)
